From ChEMBL document CHEMBL4184110 (Bioorg Med Chem Lett, 2018)
Converted amounts (≈) assume the structure as drawn.

Tests used:
[1] = molecular target: T1, Peroxisome proliferator-activated receptor delta (Homo sapiens, UniProt Q03181); experiment: Antagonist activity at CMV-fused PPARdelta-LBD-GAL4-DBD (unknown origin) expressed in HEK293T cells assessed as inhibition of GW0742-induced receptor transactivation after 16 hrs by bright-Glo luciferase reporter gene assay; type: cell-based
T1 sequence (Q03181 whole entry): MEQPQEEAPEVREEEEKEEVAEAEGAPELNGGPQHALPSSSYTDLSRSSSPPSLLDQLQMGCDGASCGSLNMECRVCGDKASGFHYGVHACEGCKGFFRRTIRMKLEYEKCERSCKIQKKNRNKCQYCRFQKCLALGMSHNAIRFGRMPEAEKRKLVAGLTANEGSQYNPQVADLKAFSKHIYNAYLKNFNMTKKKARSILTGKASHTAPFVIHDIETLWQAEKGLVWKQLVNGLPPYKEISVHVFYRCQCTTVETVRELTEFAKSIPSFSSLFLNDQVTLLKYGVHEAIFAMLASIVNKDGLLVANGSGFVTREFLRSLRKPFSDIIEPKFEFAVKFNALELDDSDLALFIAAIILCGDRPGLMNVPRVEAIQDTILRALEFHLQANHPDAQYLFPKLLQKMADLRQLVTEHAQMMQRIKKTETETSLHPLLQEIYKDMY

[2] = molecular target: T2, Peroxisome proliferator-activated receptor gamma (Homo sapiens, UniProt P37231); experiment: Antagonist activity at CMV-fused PPARgamma-LBD-GAL4-DBD (unknown origin) expressed in HEK293T cells assessed as inhibition of rosiglitazone-induced receptor transactivation after 16 hrs by bright-Glo luciferase reporter gene assay; type: cell-based
T2 sequence (P37231 whole entry): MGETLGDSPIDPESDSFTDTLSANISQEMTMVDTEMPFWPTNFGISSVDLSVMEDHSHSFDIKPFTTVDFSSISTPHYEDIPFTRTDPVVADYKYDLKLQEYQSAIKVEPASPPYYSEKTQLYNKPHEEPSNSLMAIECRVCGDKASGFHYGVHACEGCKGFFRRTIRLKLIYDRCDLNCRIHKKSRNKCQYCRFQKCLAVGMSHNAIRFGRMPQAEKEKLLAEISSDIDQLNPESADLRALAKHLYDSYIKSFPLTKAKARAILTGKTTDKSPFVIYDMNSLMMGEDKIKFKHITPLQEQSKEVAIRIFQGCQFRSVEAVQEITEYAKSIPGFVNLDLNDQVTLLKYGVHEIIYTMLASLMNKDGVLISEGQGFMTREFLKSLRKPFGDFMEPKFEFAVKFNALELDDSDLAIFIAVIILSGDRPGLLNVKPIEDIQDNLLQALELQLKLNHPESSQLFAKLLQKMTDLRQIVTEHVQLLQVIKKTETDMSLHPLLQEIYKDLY

[3] = molecular target: T3, Peroxisome proliferator-activated receptor alpha (Homo sapiens, UniProt Q07869); experiment: Antagonist activity at CMV-fused PPARalpha-LBD-GAL4-DBD (unknown origin) expressed in HEK293T cells assessed as inhibition of GW7647-induced receptor transactivation after 16 hrs by bright-Glo luciferase reporter gene assay; type: cell-based
T3 sequence (Q07869 whole entry): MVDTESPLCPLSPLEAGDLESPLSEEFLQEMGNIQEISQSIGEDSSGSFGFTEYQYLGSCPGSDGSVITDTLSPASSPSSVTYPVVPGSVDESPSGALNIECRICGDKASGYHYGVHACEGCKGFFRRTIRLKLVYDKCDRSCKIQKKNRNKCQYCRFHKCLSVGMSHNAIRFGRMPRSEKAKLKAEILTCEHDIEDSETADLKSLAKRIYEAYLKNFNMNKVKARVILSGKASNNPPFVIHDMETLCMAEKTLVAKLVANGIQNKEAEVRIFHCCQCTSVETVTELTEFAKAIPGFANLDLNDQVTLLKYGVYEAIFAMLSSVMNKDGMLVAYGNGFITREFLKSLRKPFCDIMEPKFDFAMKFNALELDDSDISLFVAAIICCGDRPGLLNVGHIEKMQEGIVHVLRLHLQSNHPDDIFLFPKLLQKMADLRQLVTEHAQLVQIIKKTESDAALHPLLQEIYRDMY

Estrogen receptor = molecular target: T4, Estrogen receptor (Homo sapiens, UniProt P03372); experiment: Antagonist activity at CMV-fused ERalpha-LBD-GAL4-DBD (unknown origin) expressed in HEK293T cells assessed as inhibition of estradiol-induced receptor transactivation after 16 hrs by bright-Glo luciferase reporter gene assay; type: cell-based
T4 sequence (P03372 whole entry): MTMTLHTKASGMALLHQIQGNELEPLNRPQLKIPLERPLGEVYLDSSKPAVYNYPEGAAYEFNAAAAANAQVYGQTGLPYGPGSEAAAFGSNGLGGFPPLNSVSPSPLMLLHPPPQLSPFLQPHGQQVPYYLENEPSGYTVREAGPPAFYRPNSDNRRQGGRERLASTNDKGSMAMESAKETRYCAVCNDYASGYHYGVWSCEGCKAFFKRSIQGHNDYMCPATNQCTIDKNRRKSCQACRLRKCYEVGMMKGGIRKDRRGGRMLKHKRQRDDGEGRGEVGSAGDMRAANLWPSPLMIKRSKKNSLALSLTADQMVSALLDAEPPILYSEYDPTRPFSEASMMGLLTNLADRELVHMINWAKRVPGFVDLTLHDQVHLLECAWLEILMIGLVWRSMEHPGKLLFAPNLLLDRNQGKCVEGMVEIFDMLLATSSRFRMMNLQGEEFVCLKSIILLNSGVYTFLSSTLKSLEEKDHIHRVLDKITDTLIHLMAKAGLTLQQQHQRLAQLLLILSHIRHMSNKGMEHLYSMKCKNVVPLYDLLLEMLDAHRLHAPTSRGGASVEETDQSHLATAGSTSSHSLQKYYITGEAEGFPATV

[4] = Aqueous solubility of the compound in DMSO at 500 uM by filter based assay; type: physicochemical
Vitamin D3 receptor [5] = molecular target: T5, Vitamin D3 receptor (Homo sapiens, UniProt P11473); experiment: Antagonist activity at VDR-LBD (unknown origin) assessed as inhibition of LG190178-induced recruitment of alexa fluor 647-labeled SRC2-3 after 30 mins by fluorescence polarization assay
T5 sequence (P11473 whole entry): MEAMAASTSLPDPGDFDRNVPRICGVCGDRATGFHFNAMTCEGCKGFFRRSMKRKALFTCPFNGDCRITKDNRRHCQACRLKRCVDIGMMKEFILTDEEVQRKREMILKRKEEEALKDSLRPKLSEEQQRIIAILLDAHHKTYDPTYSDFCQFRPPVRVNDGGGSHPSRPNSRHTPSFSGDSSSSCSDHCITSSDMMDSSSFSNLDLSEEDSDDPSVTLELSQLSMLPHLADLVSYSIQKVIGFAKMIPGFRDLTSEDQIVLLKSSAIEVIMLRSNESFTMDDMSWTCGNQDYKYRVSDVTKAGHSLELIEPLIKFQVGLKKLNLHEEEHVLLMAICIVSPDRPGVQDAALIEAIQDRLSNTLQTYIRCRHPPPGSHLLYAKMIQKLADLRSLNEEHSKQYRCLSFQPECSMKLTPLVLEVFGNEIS

Vitamin D3 receptor [6] = molecular target: T5, Vitamin D3 receptor; experiment: Antagonist activity at VP16-fused VDR-LBD (unknown origin) expressed in HEK293T cells assessed as inhibition of ligand-induced GAL4-fused SRC1 coactivator recruitment by two-hybrid luciferase reporter gene assay; type: cell-based

IC50 [1] | IC50 [2] | IC50 [3] | IC50 (Estrogen receptor) | solubility kinetic at 500 µM [4] | IC50 (Vitamin D3 receptor [5]) | IC50 (Vitamin D3 receptor [6]) | Compound
11.3 µM | 6.7 µM | 1.9 µM | 1.7 µM | 45.3 µM (≈ 16.6 µg/mL) | Not Active | 13.9 µM | COC(=O)Cc1ccc(OCc2oc(-c3cccc(OC)c3)nc2C)cc1
10.9 µM | 7.6 µM | 6.6 µM | 5.2 µM | 44.1 µM (≈ 15.6 µg/mL) | Not Active | 7.33 µM | COC(=O)c1cccc(OCc2oc(-c3ccccc3OC)nc2C)c1
6.6 µM | 6.3 µM | 8 µM | 4.1 µM | 61.6 µM (≈ 22.6 µg/mL) | Not Active | 11.1 µM | COC(=O)Cc1ccc(OCc2oc(-c3ccccc3OC)nc2C)cc1
10.9 µM | 7.6 µM | 3.5 µM | 4.7 µM | 18.5 µM (≈ 6.54 µg/mL) | Not Active | 8.89 µM | COC(=O)c1ccc(OCc2oc(-c3cccc(OC)c3)nc2C)cc1
